In ChEMBL document CHEMBL4145625 (J Med Chem, 2018):
≈ marks a conversion by molar mass, not a printed value.

Key:
U-87 MG [1] = experiment: Antitumor activity against Luc tagged human U87MG cells xenografted in BALB/c nude mouse glioblastoma orthotopic model assessed as tumor growth inhibition at 30 mg/kg, po administered daily for 5 days by MRI method relative to control; type: functional, U-87MG ATCC; conditions: 120 h, read-out: TGI
Mus musculus [2] = experiment: Toxicity in human NCI-H460 cells xenografted BALB/c nude mouse assessed as reduction in body weight at 24 mg/kg, ip administered once daily after 16 days; type: organism-based; conditions: in vivo, 384 h
NCI-H460 [3] = experiment: Antitumor activity against human NCI-H460 cells xenografted in BALB/c nude mouse assessed as tumor growth inhibition at 24 mg/kg, ip administered once daily after 16 days relative to control; type: functional; conditions: 384 h, read-out: TGI
Mus musculus [4] = experiment: Toxicity in human NCI-H460 cells xenografted BALB/c nude mouse assessed as reduction in body weight at 24 mg/kg, ip administered once daily after 20 days; type: organism-based; conditions: in vivo, 480 h
NCI-H460 [5] = experiment: Antitumor activity against human NCI-H460 cells xenografted in BALB/c nude mouse assessed as tumor growth inhibition at 24 mg/kg, ip administered once daily after 20 days relative to control; type: functional; conditions: 480 h, read-out: TGI
NCI-H460 [6] = experiment: animal or person; conditions: Mus musculus, NCI-H460, po, 480 h, read-out: TGI
Description: Antitumor activity against human NCI-H460 cells xenografted in BALB/c nude mouse assessed as tumor growth inhibition at 5 mg/kg, po administered once daily after 20 days relative to control

in vivo [7] = conditions: ICR, mouse, in vivo, iv, 3 mg/kg
Description: Volume of distribution at steady state in ICR mouse plasma at 3 mg/kg, iv by LC/MS/MS analysis

in vivo [8] = conditions: ICR, mouse, in vivo, iv, 3 mg/kg; remark: listed apart in the source
MGC-803 [9] = experiment: Antitumor activity against human MGC803 cells xenografted in BALB/c nude mouse assessed as tumor growth inhibition at 10 mg/kg, po administered once daily for 18 days measured at post last dose relative to control; type: functional; conditions: MGC-803, po, 432 h, read-out: TGI
in vivo [10] = conditions: ICR, mouse, in vivo, po, 30 mg/kg
PC-3 = experiment: cells; type: functional, cell-based; conditions: Homo sapiens, PC-3, 96 h
Description: Cytotoxicity against human PC3 cells after 96 hrs by MTT assay

[11] = mouse, in vivo, po, 30 mg/kg
in vivo [12] = conditions: ICR, mouse, in vivo, po, 30 mg/kg; remark: listed apart in the source
HGC-27 [13] = experiment: cells; type: functional, cell-based; conditions: Homo sapiens, HGC-27, 96 h
Description: Cytotoxicity against human HGC27 cells after 96 hrs by MTT assay

MGC-803 [14] = conditions: Homo sapiens
Description: Antitumor activity against human MGC803 cells xenografted in po dosed BALB/c nude mouse assessed as tumor growth inhibition administered once daily measured at post last dose

[15] = target: Phosphatidylinositol 4,5-bisphosphate 3-kinase catalytic subunit gamma isoform (Homo sapiens, UniProt P48736); experiment: Inhibition of PI3Kgamma (unknown origin) using PIP2 as substrate by ADP-Glo assay
[16] = target: RAC-alpha serine/threonine-protein kinase (Homo sapiens, UniProt P31749); experiment: Inhibition of AKT1 (unknown origin) using FAM-labeled peptide as substrate by mobility shift assay
in vivo [17] = conditions: ICR, mouse, po
Description: Toxicity in po dosed ICR mouse administered as single dose via oral gavage measured after 14 days

DU-145 = experiment: cells; type: functional, cell-based; conditions: Homo sapiens, DU-145, 96 h
Description: Cytotoxicity against human DU145 cells after 96 hrs by MTT assay

in vivo [18] = conditions: ICR, mouse, in vivo, po, 30 mg/kg; remark: listed apart in the source
in vitro [19] = conditions: ICR, mouse, plasma
Description: Protein binding in ICR mouse plasma at 2 uM after 6 hrs by LC-MS/MS analysis

in vivo [20] = conditions: ICR, mouse, in vivo, po, 30 mg/kg; remark: listed apart in the source
[21] = target: Phosphatidylinositol 4,5-bisphosphate 3-kinase catalytic subunit beta isoform (Homo sapiens, UniProt P42338); experiment: Inhibition of PI3Kbeta (unknown origin) using PIP2 as substrate by ADP-Glo assay
T98G = experiment: cells; type: functional, cell-based; conditions: Homo sapiens, 96 h
Description: Cytotoxicity against human T98G cells after 96 hrs by MTT assay

MGC-803 [22] = experiment: Antitumor activity against human MGC803 cells xenografted in BALB/c nude mouse assessed as tumor growth inhibition at 5 mg/kg, po administered once daily for 18 days measured at post last dose relative to control; type: functional; conditions: MGC-803, po, 432 h, read-out: TGI
[23] = target: Serine/threonine-protein kinase mTOR (Homo sapiens, UniProt P42345); experiment: Inhibition of mTOR (unknown origin) using ULight-4E-BP1 peptide as substrate after 30 mins by Lance Ultra assay
in vivo [24] = conditions: ICR, mouse, in vivo, iv, 3 mg/kg; remark: listed apart in the source
Mus musculus [25] = experiment: In vivo inhibition of PI3Kalpha in po dosed athymic BALB/c nude mouse xenografted with human NCI-H460 cells administered as single dose via gavage after 2 to 24 hrs; type: functional, organism-based
SH-SY5Y = experiment: cells; type: functional, cell-based; conditions: Homo sapiens, 96 h
Description: Cytotoxicity against human SH-SY5Y cells after 96 hrs by MTT assay

in vivo [26] = conditions: ICR, mouse, in vivo, iv, 3 mg/kg; remark: listed apart in the source
in vivo [27] = conditions: ICR, mouse, in vivo, iv, 3 mg/kg; remark: listed apart in the source
Description: Half life in ICR mouse plasma at 3 mg/kg, iv by LC/MS/MS analysis

MGC-803 [28] = experiment: animal or person; conditions: Mus musculus, MGC-803, po, 432 h, read-out: TGI
A549 = experiment: cells; type: functional, cell-based; conditions: Homo sapiens, A549, 96 h
Description: Cytotoxicity against human A549 cells after 96 hrs by MTT assay

NCI-H209 [29] = experiment: animal or person; conditions: Mus musculus, NCI-H209, po, read-out: TGI
in vivo [30] = conditions: ICR, mouse, in vivo, iv, 3 mg/kg; remark: listed apart in the source
in vivo [31] = conditions: ICR, mouse, in vivo, po, 30 mg/kg; remark: listed apart in the source
Description: Half life in ICR mouse plasma at 30 mg/kg, po by LC/MS/MS analysis

NCI-H209 [32] = experiment: animal or person; conditions: Mus musculus, NCI-H209, po, read-out: TGI; remark: listed apart in the source
Description: Antitumor activity against human NCI-H209 cells xenografted in BALB/c nude mouse assessed as tumor growth inhibition at 5 mg/kg, po administered once daily after 19 consecutive days relative to control

in vitro [33] = conditions: human, plasma
Description: Protein binding in human plasma at 2 uM after 6 hrs by LC-MS/MS analysis

U-87 MG [34] = experiment: cells; type: functional, cell-based, U-87MG ATCC; conditions: Homo sapiens, 96 h
Description: Cytotoxicity against human U87MG cells after 96 hrs by MTT assay

NCI-H460 [35] = experiment: Antitumor activity against human NCI-H460 cells xenografted in BALB/c nude mouse assessed as tumor growth inhibition at 10 mg/kg, po administered once daily after 20 days relative to control; type: functional; conditions: 480 h, read-out: TGI
in vivo [36] = conditions: athymic BALB/c nude, mouse, in vivo, po, 10 mg/kg
NCI-H460 [37] = experiment: Antitumor activity against human NCI-H460 cells xenografted in po dosed athymic BALB/c nude mouse administered as single dose via gavage after 2 to 24 hrs; type: functional, organism-based
[38] = target: T1, Phosphatidylinositol 4,5-bisphosphate 3-kinase catalytic subunit delta isoform (Homo sapiens, UniProt O00329); experiment: Inhibition of PI3Kdelta (unknown origin) using PIP2 as substrate by ADP-Glo assay
T1 sequence (O00329 whole entry): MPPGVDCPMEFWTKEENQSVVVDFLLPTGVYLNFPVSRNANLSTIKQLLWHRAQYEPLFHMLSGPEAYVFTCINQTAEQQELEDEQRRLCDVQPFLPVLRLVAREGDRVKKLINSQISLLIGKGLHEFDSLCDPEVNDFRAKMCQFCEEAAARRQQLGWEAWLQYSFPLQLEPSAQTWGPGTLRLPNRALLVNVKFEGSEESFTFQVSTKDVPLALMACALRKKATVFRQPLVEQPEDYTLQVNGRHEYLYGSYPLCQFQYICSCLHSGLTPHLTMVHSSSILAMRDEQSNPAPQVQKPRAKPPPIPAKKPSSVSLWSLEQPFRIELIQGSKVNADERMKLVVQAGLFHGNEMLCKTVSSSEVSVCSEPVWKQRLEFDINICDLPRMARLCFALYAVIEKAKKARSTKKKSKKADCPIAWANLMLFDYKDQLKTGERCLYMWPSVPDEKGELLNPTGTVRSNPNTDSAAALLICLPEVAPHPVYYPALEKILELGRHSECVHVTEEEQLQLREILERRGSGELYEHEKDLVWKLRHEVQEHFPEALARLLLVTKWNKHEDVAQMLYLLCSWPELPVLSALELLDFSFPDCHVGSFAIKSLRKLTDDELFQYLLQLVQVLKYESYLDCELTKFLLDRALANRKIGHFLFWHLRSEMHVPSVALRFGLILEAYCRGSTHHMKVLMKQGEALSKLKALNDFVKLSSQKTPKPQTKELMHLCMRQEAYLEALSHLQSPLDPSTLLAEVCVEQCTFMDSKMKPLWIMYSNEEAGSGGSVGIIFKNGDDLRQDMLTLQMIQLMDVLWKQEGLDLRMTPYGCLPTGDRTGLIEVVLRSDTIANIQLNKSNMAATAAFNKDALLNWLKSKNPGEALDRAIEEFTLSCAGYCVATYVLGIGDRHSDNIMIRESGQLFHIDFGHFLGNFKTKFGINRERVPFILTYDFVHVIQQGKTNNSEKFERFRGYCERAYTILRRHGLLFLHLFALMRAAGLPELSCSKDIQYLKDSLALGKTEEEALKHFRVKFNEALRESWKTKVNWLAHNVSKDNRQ

in vivo [39] = conditions: ICR, mouse, in vivo, po, 30 mg/kg; remark: listed apart in the source
NCI-H209 [40] = conditions: Homo sapiens
Description: Antitumor activity against human NCI-H209 cells xenografted in po dosed BALB/c nude mouse assessed as tumor growth inhibition administered once daily after 19 consecutive days

U-251 = experiment: cells; type: functional, cell-based; conditions: Homo sapiens, U-251, 96 h
Description: Cytotoxicity against human U251 cells after 96 hrs by MTT assay

MDA-MB-231 = experiment: cells; type: functional, cell-based; conditions: Homo sapiens, MDA-MB-231, 96 h
Description: Cytotoxicity against human MDA-MB-231 cells after 96 hrs by MTT assay

in vivo [41] = conditions: ICR, mouse, in vivo, iv, 3 mg/kg; remark: listed apart in the source
Description: Clearance in ICR mouse plasma at 3 mg/kg, iv by LC/MS/MS analysis

HGC-27 [42] = experiment: Antitumor activity against human HGC27 cells xenografted in BALB/c nude mouse assessed as tumor growth inhibition at […], po administered once daily for 15 days measured at post last dose relative to control; type: functional; conditions: HGC-27, po, 360 h, read-out: TGI
in vivo [43] = conditions: ICR, mouse, in vivo, po, 30 mg/kg; remark: listed apart in the source
NCI-H460 [44] = experiment: cells; type: functional, cell-based; conditions: Homo sapiens, NCI-H460, 96 h
Description: Cytotoxicity against human NCI-H460 cells after 96 hrs by MTT assay

Mus musculus [45] = experiment: Toxicity in human NCI-H460 cells xenografted BALB/c nude mouse assessed as reduction in body weight at 10 mg/kg, po administered once daily after 20 days; type: organism-based; conditions: in vivo, 480 h

Phosphatidylinositol 4,5-bisphosphate 3-kinase catalytic subunit beta isoform, sequence (P42338 whole entry, canonical isoform): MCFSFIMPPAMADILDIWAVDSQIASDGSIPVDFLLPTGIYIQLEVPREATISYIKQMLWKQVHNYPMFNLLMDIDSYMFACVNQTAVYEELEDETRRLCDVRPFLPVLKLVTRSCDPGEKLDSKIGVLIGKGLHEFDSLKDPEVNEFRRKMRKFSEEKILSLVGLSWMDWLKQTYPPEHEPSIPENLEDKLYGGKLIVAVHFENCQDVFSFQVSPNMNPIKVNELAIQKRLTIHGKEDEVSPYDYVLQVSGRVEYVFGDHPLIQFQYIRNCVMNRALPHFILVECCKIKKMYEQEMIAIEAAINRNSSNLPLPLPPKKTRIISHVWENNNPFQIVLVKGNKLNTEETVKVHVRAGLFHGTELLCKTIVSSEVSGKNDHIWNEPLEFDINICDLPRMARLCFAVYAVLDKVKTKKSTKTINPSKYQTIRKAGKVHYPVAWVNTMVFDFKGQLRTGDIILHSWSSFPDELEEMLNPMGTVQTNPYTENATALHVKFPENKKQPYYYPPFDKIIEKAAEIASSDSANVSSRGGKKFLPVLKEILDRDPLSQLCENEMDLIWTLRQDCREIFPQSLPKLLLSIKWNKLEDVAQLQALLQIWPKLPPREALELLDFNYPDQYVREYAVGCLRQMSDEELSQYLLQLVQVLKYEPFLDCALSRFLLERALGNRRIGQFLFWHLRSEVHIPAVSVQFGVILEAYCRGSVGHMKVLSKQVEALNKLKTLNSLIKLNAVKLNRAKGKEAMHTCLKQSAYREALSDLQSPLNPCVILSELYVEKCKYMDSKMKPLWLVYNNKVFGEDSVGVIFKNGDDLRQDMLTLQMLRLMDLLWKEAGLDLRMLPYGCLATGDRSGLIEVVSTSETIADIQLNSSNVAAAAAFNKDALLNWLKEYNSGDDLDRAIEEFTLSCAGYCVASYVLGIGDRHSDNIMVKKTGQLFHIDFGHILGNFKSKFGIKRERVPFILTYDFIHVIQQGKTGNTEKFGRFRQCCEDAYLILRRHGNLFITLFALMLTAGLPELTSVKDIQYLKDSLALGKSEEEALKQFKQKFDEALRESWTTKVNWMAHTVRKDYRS
RAC-alpha serine/threonine-protein kinase, sequence (P31749 whole entry): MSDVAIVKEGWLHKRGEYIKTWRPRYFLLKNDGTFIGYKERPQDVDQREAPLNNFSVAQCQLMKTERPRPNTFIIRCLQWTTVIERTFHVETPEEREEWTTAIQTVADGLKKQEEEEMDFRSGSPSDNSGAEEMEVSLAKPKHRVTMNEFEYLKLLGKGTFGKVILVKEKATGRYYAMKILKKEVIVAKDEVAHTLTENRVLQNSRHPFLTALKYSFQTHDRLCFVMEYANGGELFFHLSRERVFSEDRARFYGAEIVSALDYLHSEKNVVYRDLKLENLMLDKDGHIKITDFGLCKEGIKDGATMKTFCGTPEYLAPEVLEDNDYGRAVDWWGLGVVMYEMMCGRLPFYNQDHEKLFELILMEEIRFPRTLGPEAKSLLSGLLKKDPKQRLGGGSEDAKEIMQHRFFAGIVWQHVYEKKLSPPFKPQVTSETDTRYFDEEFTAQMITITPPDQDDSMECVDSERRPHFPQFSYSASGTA
Phosphatidylinositol 4,5-bisphosphate 3-kinase catalytic subunit gamma isoform, sequence (P48736 whole entry, canonical isoform): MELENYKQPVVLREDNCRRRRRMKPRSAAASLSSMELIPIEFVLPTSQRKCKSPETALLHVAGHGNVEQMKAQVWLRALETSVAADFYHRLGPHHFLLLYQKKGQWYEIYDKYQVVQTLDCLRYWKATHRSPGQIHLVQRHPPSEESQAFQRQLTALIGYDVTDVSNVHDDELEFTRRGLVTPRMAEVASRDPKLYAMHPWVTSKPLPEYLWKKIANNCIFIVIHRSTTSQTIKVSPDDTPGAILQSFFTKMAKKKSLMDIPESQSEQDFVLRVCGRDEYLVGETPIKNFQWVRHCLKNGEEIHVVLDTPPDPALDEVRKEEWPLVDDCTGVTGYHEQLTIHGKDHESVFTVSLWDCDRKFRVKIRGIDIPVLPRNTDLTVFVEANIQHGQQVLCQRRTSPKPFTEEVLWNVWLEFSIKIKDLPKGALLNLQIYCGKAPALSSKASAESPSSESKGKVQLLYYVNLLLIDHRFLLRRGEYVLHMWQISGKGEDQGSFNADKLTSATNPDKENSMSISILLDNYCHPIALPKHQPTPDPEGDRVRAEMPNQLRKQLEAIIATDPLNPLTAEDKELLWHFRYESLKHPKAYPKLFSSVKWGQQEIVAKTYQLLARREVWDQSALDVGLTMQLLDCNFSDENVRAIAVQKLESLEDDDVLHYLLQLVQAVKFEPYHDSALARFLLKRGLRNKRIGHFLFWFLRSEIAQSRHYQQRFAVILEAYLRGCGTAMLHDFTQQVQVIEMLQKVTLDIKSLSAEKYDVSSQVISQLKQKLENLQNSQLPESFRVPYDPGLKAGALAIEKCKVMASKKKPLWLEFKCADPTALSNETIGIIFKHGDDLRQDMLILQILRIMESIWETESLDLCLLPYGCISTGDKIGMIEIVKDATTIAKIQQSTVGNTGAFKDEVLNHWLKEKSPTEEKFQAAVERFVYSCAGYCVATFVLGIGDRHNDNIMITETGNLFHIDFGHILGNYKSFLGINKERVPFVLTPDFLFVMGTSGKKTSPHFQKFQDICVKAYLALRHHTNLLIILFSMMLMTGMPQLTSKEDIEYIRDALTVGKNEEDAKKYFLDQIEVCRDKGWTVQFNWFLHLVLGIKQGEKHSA

SMILES: COc1ccc(CN2CCNCC2)c(OC)c1OC [TRIMETAZIDINE]
- inhibition in vivo at 30 mg/kg (U-87 MG [1]): 98.1%

SMILES: CC(=O)O[C@H]1C(=O)[C@@]2(C)[C@H]([C@H](OC(=O)c3ccccc3)[C@]3(O)C[C@H](OC(=O)[C@H](O)[C@@H](NC(=O)c4ccccc4)c4ccccc4)C(C)=C1C3(C)C)[C@]1(OC(C)=O)CO[C@@H]1C[C@@H]2O [PACLITAXEL]
- Activity (Mus musculus [2]): Toxic
- inhibition in vivo at 24 mg/kg (NCI-H460 [3]): 75.4%
- Activity (Mus musculus [4]): Toxic
- inhibition in vivo at 24 mg/kg (NCI-H460 [5]): 85.9%

SMILES: COc1ncc(-c2cc(OC3CCOCC3)c3nc(N)nc(C)c3c2)cc1NS(=O)(=O)c1ccc(F)cc1F
- inhibition in vivo at 5 mg/kg (NCI-H460 [6]): 72.5%
- Vd (in vivo [7]): 0.853 L/kg
- AUC(0-inf) (in vivo [8]): 7240 ng·h/mL
- inhibition in vivo at 10 mg/kg (MGC-803 [9]): 77.7%
- Cmax (in vivo [10]): 4290 ng/mL
- IC50 (PC-3): 150 nM
- AUCt [11]: 234 ng·h/g
- Cmax (in vivo [12]): 93 ng/g
- IC50 (HGC-27 [13]): 25 nM
- TGI (MGC-803 [14]): Dose-dependent effect
- IC50 [15]: 1.3 nM
- IC50 [16]: > 10000 nM
- MTD at 336 h (in vivo [17]): > 40 mg/kg
- IC50 (DU-145): 1700 nM
- bioavailability (in vivo [18]): 33.2%
- fraction unbound at 6 h, 2 µM (in vitro [19]): 0.0823
- Tmax (in vivo [20]): 30 min
- IC50 [21]: 0.53 nM
- IC50 (T98G): 420 nM
- inhibition in vivo at 5 mg/kg (MGC-803 [22]): 77.2%
- IC50 [23]: 7.9 nM
- Tmax (in vivo [24]): 1.8 min
- IC90 (Mus musculus [25]): 0.00081 µg/mL (≈ 0.00145 µM)
- IC50 (SH-SY5Y): 280 nM
- Cmax (in vivo [26]): 10300 ng/mL
- half-life (in vivo [27]): 88.8 min
- inhibition in vivo at […] (MGC-803 [28]): 68.2%
- IC50 (A549): 53 nM
- inhibition in vivo at […] (NCI-H209 [29]): 80.9%
- AUC(0-t) (in vivo [30]): 7190 ng·h/mL
- half-life (in vivo [31]): 666 min
- inhibition in vivo at 5 mg/kg (NCI-H209 [32]): 91.7%
- fraction unbound at 6 h, 2 µM (in vitro [33]): 0.0422
- IC50 (U-87 MG [34]): 120 nM
- inhibition in vivo at 10 mg/kg (NCI-H460 [35]): 79.8%
- AUC(0-t) at 24 h (in vivo [36]): 11800 ng·h/mL
- IC50 (NCI-H460 [37]): 0.016 µg/mL (≈ 0.0287 µM)
- IC50 [38]: 0.18 nM
- AUC(0-t) (in vivo [39]): 23900 ng·h/mL
- TGI (NCI-H209 [40]): Dose-dependent effect
- IC50 (U-251): 320 nM
- IC50 (MDA-MB-231): 180 nM
- clearance (in vivo [41]): 7.58 mL/min/kg
- inhibition in vivo at […] (HGC-27 [42]): 92.2%
- AUC(0-inf) (in vivo [43]): 36200 ng·h/mL

SMILES: COc1ccc(-c2cc3c(C)nc(N)nc3n([C@H]3CC[C@H](OCCO)CC3)c2=O)cn1 [PF-04691502]
- IC50 (NCI-H460 [44]): 200 nM
- Activity (Mus musculus [45]): Toxic
- inhibition in vivo at 10 mg/kg (NCI-H460 [35]): 67.4%
